Patent US9133207B2, “Tetrandrine derivatives with substituted 5-carbon, preparation method and use thereof” (Hangzhou Bensheng Pharmaceutical Co., Ltd., priority 2011, dated 2015)
Converted amounts (≈) assume the structure as drawn.

Key:
[1] = tested on: K562/adr (drug-resistant, chronic myeloid leukemia, CML); experiment: Leukemia cell growth inhibition, MTT, 72 h (Example 5); assay type: cell-based, human; details: Homo sapiens, K562/Adr; 72 h, MTT
Source text: (§1) Leukemia cell lines: leukemia cell lines: K562/adr (drug-resistant, chronic myeloid leukemia, CML), NB4 (acute promyelocytic leukemia, AML), Kasumi-1 (acute myeloid leukemia M2 type, AML-M2), Jurkat (acute lymphoblastic leukemia, ALL), all of which are donated by Cancer Research Institute of Zhejiang University, China; and H9 (acute lymphoblastic leukemia, ALL), which is purchased from China Center for Type Culture Collection.
(§2) Reagents: The standard sample of tetrandrine (TTD) is purchased from Ci Yuan Biotechnology Co., Ltd., Shaanxi, China; and the 5-substituted tetrandrine derivatives of the present invention.
(§3) Obtaining 6000 well-growing leukemia cells and inoculating them into wells of a 96-well cell culture plate. The culture medium is a 1640 cell culture medium containing 10% fetal bovine serum. After adding the tetrandrine derivatives of different concentrations and mixing uniformly, placing the plate in a carbon dioxide cell incubator (5% CO2) at 37° C. and incubating for 72 hours. Then the viable cell concentration is determined by the MTT method.

[2] = tested on: Kasumi-1 (acute myeloid leukemia M2 type, AML-M2); experiment: as above; assay type: cell-based, human; details: Homo sapiens, Kasumi 1
Source text: as §1, §2, §3

[3] = tested on: PANC-1 (pancreatic cancer); experiment: Solid tumor cell growth inhibition, MTT, 72 h (Example 7); assay type: cell-based, human; details: Homo sapiens; 72 h, MTT, PANC-1
Protocol: (§4) Human solid tumor cell lines: Hep-2 (laryngeal carcinoma), A549 (human lung cancer), CaES-17 (esophageal cancer cell), PC-3 (prostate cancer), CNE (nasopharyngeal carcinoma cell) and SK-OV-3 (ovarian cancer cell), all of which are purchased from China Center For Type Culture Collection; RKO (human colon adenocarcinoma cell), MGC 803 (human gastric cancer cell), MG63 (osteosarcoma), and U87 MG (malignant glioma cell), all of which are purchased from Fuxiang Bio-tech Co. Ltd., Shanghai, China; PANC-1 (pancreatic cancer), Huh? (human liver cancer cell), Becap37 (human breast cancer cell), and Hela (human cervical cancer cell), all of which are donated by Cancer Research Institute of Zhejiang University, China.
(§5) Reagents: the same as in Example 5.
(§6) Obtaining 4000 well-growing human solid tumor cells and inoculating them into wells of a 96-well cell culture plate. The culture medium is DMEM High Glucose cell culture medium containing 10% fetal bovine serum. The plate is placed in a carbon dioxide cell incubator (5% CO2) at 37° C. and incubated for 24 hours. After been added with tetrandrine derivatives of different concentration and mixing uniformly, the plate is placed in a carbon dioxide cell incubator (5% CO2) at 37° C. and incubated for 72 hours. Then the viable cell concentration is determined by the MTT method and the cell viability (%) after drug treatment is calculated. In this experiment, the cell viability of control group (not treated with any compound) is set as 100%.

A549 (human lung cancer) = experiment: as above; assay type: cell-based; details: Homo sapiens; 72 h, MTT, A549
Protocol: as §4, §5, §6

[4] = tested on: H9 (acute lymphoblastic leukemia, ALL); experiment: Leukemia cell growth inhibition, MTT, 72 h (Example 5); assay type: cell-based, human; details: Homo sapiens; 72 h, MTT
Source text: as §1, §2, §3

[5] = tested on: Jurkat (acute lymphoblastic leukemia, ALL); experiment: as above; assay type: cell-based, human; details: Homo sapiens, Jurkat; 72 h, MTT
Source text: as §1, §2, §3

PC-3 (prostate cancer) = experiment: Solid tumor cell growth inhibition, MTT, 72 h (Example 7); assay type: cell-based, human; details: Homo sapiens; 72 h, MTT, PC-3
Protocol: as §4, §5, §6

[6] = tested on: CaES-17 (esophageal cancer cell); experiment: as above; assay type: cell-based, human; details: Homo sapiens, CaEs17; 72 h, MTT, CAES-17
Protocol: as §4, §5, §6

MG63 (osteosarcoma) = experiment: as above; assay type: cell-based, human; details: Homo sapiens; 72 h, MTT, MG-63
Protocol: as §4, §5, §6

[7] = tested on: RPMI8226 (multiple myeloma); experiment: Multiple myeloma cell growth inhibition, MTT, 72 h (Example 6); assay type: cell-based, human; details: Homo sapiens, RPMI-8226; 72 h, MTT, RPMI8226
Protocol: Multiple myeloma and lymphoma cell lines: RPMI8226 (multiple myeloma), purchased from Fuxiang Bio-tech Co. Ltd., Shanghai, China.
as §5
as §3, with “incubated” for “incubating”

[8] = tested on: Becap37 (human breast cancer cell); experiment: Solid tumor cell growth inhibition, MTT, 72 h (Example 7); assay type: cell-based; details: Homo sapiens; 72 h, MTT, Becap-37
Protocol: as §4, §5, §6

[9] = tested on: Huh7 (human liver cancer cell); experiment: as above; assay type: cell-based; details: Homo sapiens; 72 h, MTT, Huh-7
Protocol: as §4, §5, §6

[10] = tested on: MGC 803 (human gastric cancer cell); experiment: as above; assay type: cell-based; details: Homo sapiens
Protocol: as §4, §5, §6

SMILES	IC50 [1]	IC90 [1]	IC50 [2]	IC90 [2]	IC50 [3]	IC90 [3]	IC50 (A549 (human lung cancer))	IC90 (A549 (human lung cancer))	IC50 [4]	IC90 [4]	IC50 (MG63 (osteosarcoma))	IC90 (MG63 (osteosarcoma))	IC50 [7]	IC90 [7]	IC50 [8]	IC90 [8]	IC50 [9]	IC90 [9]	IC50 [10]	IC90 [10]	other results
COc1ccc2cc1Oc1ccc(cc1)C[C@H]1c3cc(c(OC)cc3CCN1C)Oc1c(OC)c(OC)c(COCc3ccc(F)cc3)c3c1[C@H](C2)N(C)CC3 [BS-TE-408]	0.87 µg/mL (≈ 1.14 µM)	2.78 µg/mL (≈ 3.65 µM)	2.52 µg/mL (≈ 3.31 µM)	8 µg/mL (≈ 10.5 µM)	6 µg/mL (≈ 7.89 µM)	9.9 µg/mL (≈ 13 µM)	3.1 µg/mL (≈ 4.07 µM)	7.05 µg/mL (≈ 9.27 µM)	2.5 µg/mL (≈ 3.29 µM)	3.99 µg/mL (≈ 5.24 µM)	2.88 µg/mL (≈ 3.78 µM)	9.84 µg/mL (≈ 12.9 µM)	0.23 µg/mL (≈ 0.302 µM)	1.13 µg/mL (≈ 1.49 µM)	4.89 µg/mL (≈ 6.43 µM)	36.6 µg/mL (≈ 48.1 µM)	1.84 µg/mL (≈ 2.42 µM)	3.51 µg/mL (≈ 4.61 µM)	2.59 µg/mL (≈ 3.4 µM)	3.97 µg/mL (≈ 5.22 µM)	IC50 [5]: 2.94 µg/mL (≈ 3.86 µM); IC90 [5]: 6.94 µg/mL (≈ 9.12 µM); IC50 (PC-3 (prostate cancer)): 5.77 µg/mL (≈ 7.58 µM); IC90 (PC-3 (prostate cancer)): 9.09 µg/mL (≈ 11.9 µM); IC50 [6]: 4.8 µg/mL (≈ 6.31 µM); IC90 [6]: 14.9 µg/mL (≈ 19.6 µM)
COc1ccc2cc1Oc1ccc(cc1)C[C@H]1c3cc(c(OC)cc3CCN1C)Oc1c(OC)c(OC)c(COCc3ccsc3)c3c1[C@H](C2)N(C)CC3 [BS-TE-415]	0.57 µg/mL (≈ 0.761 µM)	2.06 µg/mL (≈ 2.75 µM)	1.95 µg/mL (≈ 2.6 µM)	6.41 µg/mL (≈ 8.56 µM)	2.76 µg/mL (≈ 3.69 µM)	4.9 µg/mL (≈ 6.54 µM)	2.44 µg/mL (≈ 3.26 µM)	5.61 µg/mL (≈ 7.49 µM)	1.71 µg/mL (≈ 2.28 µM)	2.5 µg/mL (≈ 3.34 µM)	1.31 µg/mL (≈ 1.75 µM)	4.75 µg/mL (≈ 6.34 µM)	0.14 µg/mL (≈ 0.187 µM)	0.89 µg/mL (≈ 1.19 µM)	1.9 µg/mL (≈ 2.54 µM)	3.31 µg/mL (≈ 4.42 µM)	1.09 µg/mL (≈ 1.46 µM)	1.91 µg/mL (≈ 2.55 µM)	1.06 µg/mL (≈ 1.42 µM)	1.9 µg/mL (≈ 2.54 µM)	IC50 [5]: 2.22 µg/mL (≈ 2.96 µM); IC90 [5]: 5.71 µg/mL (≈ 7.62 µM); IC50 (PC-3 (prostate cancer)): 3.5 µg/mL (≈ 4.67 µM); IC90 (PC-3 (prostate cancer)): 5.76 µg/mL (≈ 7.69 µM); IC50 [6]: 1.74 µg/mL (≈ 2.32 µM); IC90 [6]: 5.98 µg/mL (≈ 7.98 µM)
COCCCOCc1c2c3c(c(OC)c1OC)Oc1cc4c(cc1OC)CCN(C)[C@H]4Cc1ccc(cc1)Oc1cc(ccc1OC)C[C@@H]3N(C)CC2 [BS-TE-416]	0.98 µg/mL (≈ 1.35 µM)	5.59 µg/mL (≈ 7.71 µM)	2.11 µg/mL (≈ 2.91 µM)	8.17 µg/mL (≈ 11.3 µM)	4.63 µg/mL (≈ 6.39 µM)	10 µg/mL (≈ 13.8 µM)	4.05 µg/mL (≈ 5.59 µM)	11 µg/mL (≈ 15.1 µM)	2.31 µg/mL (≈ 3.19 µM)	4.4 µg/mL (≈ 6.07 µM)	1.08 µg/mL (≈ 1.49 µM)	2.49 µg/mL (≈ 3.43 µM)	0.29 µg/mL (≈ 0.4 µM)	2.76 µg/mL (≈ 3.81 µM)	1.8 µg/mL (≈ 2.48 µM)	4.31 µg/mL (≈ 5.95 µM)	2.93 µg/mL (≈ 4.04 µM)	5.07 µg/mL (≈ 6.99 µM)	5.17 µg/mL (≈ 7.13 µM)	8.33 µg/mL (≈ 11.5 µM)	IC50 [5]: 3.45 µg/mL (≈ 4.76 µM); IC90 [5]: 11.7 µg/mL (≈ 16.1 µM); IC50 (PC-3 (prostate cancer)): 4.19 µg/mL (≈ 5.78 µM); IC90 (PC-3 (prostate cancer)): 9.49 µg/mL (≈ 13.1 µM); IC50 [6]: 2.3 µg/mL (≈ 3.17 µM); IC90 [6]: 16.6 µg/mL (≈ 22.9 µM)

Continued, in another order:

IC50 [1]	IC90 [1]	IC50 [2]	IC90 [2]	IC50 [3]	IC90 [3]	IC50 (A549 (human lung cancer))	IC90 (A549 (human lung cancer))	IC50 [4]	IC90 [4]	IC50 (MG63 (osteosarcoma))	IC90 (MG63 (osteosarcoma))	IC50 [7]	IC90 [7]	IC50 [8]	IC90 [8]	IC50 [9]	IC90 [9]	IC50 [10]	IC90 [10]	SMILES	other results
1.64 µg/mL (≈ 2.52 µM)	4 µg/mL (≈ 6.14 µM)	0.8 µg/mL (≈ 1.23 µM)	2.78 µg/mL (≈ 4.27 µM)	5.07 µg/mL (≈ 7.78 µM)	10.7 µg/mL (≈ 16.4 µM)	1.66 µg/mL (≈ 2.55 µM)	5.1 µg/mL (≈ 7.82 µM)													COc1ccc2cc1Oc1ccc(cc1)C[C@H]1c3cc(c(OC)cc3CCN1C)Oc1c(OC)c(OC)c(CN)c3c1[C@H](C2)N(C)CC3 [BS-TE-361]	
0.9 µg/mL (≈ 1.21 µM)	7.91 µg/mL (≈ 10.6 µM)	3.02 µg/mL (≈ 4.05 µM)	7.51 µg/mL (≈ 10.1 µM)	3.76 µg/mL (≈ 5.05 µM)	6.73 µg/mL (≈ 9.03 µM)	3.4 µg/mL (≈ 4.56 µM)	8 µg/mL (≈ 10.7 µM)			1.08 µg/mL (≈ 1.45 µM)	4.46 µg/mL (≈ 5.99 µM)	0.19 µg/mL (≈ 0.255 µM)	1.28 µg/mL (≈ 1.72 µM)	3.5 µg/mL (≈ 4.7 µM)	4.86 µg/mL (≈ 6.52 µM)	1.52 µg/mL (≈ 2.04 µM)	3.27 µg/mL (≈ 4.39 µM)	3.44 µg/mL (≈ 4.62 µM)	4.8 µg/mL (≈ 6.44 µM)	COc1ccc2cc1Oc1ccc(cc1)C[C@H]1c3cc(c(OC)cc3CCN1C)Oc1c(OC)c(OC)c(CSc3ccccc3)c3c1[C@H](C2)N(C)CC3 [BS-TE-421]	
